Where no end group is shown, it is not given here.
Target: T1, IL-1RtI (Homo sapiens, UniProt P14778)
T1 construct: made in house; host or cells: recombinant host cells (one form soluble from baculovirus transformed host cells; another PIG-tailed and cleaved from the cell surface)
T1 sequence (P14778 18-336): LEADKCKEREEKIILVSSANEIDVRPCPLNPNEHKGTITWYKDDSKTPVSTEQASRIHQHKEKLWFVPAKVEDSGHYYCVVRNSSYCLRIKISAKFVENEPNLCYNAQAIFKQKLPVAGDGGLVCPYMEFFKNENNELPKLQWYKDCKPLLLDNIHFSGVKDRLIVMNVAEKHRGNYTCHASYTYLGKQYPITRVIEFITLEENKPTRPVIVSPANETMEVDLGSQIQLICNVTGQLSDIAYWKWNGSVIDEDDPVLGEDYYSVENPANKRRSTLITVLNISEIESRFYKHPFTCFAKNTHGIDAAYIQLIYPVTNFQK
Test: Inhibition of 125I-IL-1α binding to IL-1RtI (Example 3)
Details: inhibition of 125I-IL-1α binding to IL-1RtI; soluble peptide unless marked *
Method in brief: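 Competition with 90 pM 125I-IL-1α was run in duplicate for 2 h at 4 °C in HEPES-buffered RPMI with 1% BSA, pH 7.2-7.3, against either antibody-captured truncated receptor or cells with full-length IL-1RtI. Gamma counting of NaOH-detached material gave approximate IC50; high-affinity peptides used 24-well format.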

Row | Sequence | IC50 [µM]
1 | TLIYWQPYSVQI [TLIYWQPYSVQI] | ≤ 100
2 | TLVYWQPYSLQT [Peptide H3, TLVYWQPYSLQT] | ≤ 100
3 | VHVYWQPYSVQT [Peptide 3H5, VHVYWQPYSVQT] | ≤ 100
4 | VIEWWQPYALPL [VIEWWQ PYALPL] | ≤ 100
5 | VWYWEQPYALPL [VWYWEQ PYALPL] | ≤ 100
6 | VYWQPYSVQ [VYWQPYSVQ] | ≤ 100
7 | WETWYQPYALPL [WETWYQ PYALPL] | ≤ 100
8 | WGEWLQPYALPL [WGEWLQ PYALPL] | ≤ 100
9 | WGNWWQPYSVHR [WGNWWQPYSVHR] | > 100
10 | WLAWEQPYALPL [WLAWEQ PYALPL] | ≤ 100
11 | WRDSVYWQPYSVQPESA [WRDS VYWQPYSVQ PESA] | ≤ 100
12 | WWQPYALPL [WWQPYALPL] | ≤ 100
13 | YFQPYALGL [YFQPYALGL] | ≤ 100
14 | YFQPYALPF [YFQPYALPF] | > 100
15 | YWYQPYALGL [YWYQPYALGL] | ≤ 100
16 | YWYQPYALPL [YWYQPYALPL] | ≤ 100
17 | YYQPYALPL [YYQPYALPL] | ≤ 100
18 | YYSWQPYALPL [YYSWQ PYALPL] | > 100
19 | YYTWQQPYALPL [YYTWQQ PYALPL] | > 100

Next, values leading:

Row | IC50 [µM] | Sequence
20 | ≤ 100 | RWWQPYATPL [RWWQPYATPL]
21 | ≤ 100 | SDIWYQPYALPL [SDIWYQ PYALPL]
22 | ≤ 100 | SHLYWQPYSVQ [Peptide 2H2, SHLYWQPYSVQ]
23 | ≤ 100 | SRIWCQPYALPL [SRIWCQ PYALPL]
24 | ≤ 100 | SRVWFQPYSLQS [3H1, 6, 12, SRVWFQPYSLQS]
25 | ≤ 0.5 | SVGEDHNFWTSEYWQPYALPL [SVGEDHNFWTSE YWQPYALPL]
26 | ≤ 100 | SWHSVYWQPYSVQSVPE [SWHS VYWQPYSVQ SVPE]
27 | ≤ 0.5 | SWTDYGYWQPYALPISGL [SWTDYG YWQPYA LPISGL]
28 | ≤ 100 | SYDWEQPYALPL [SYDWEQ PYALPL]
29 | ≤ 100 | TIIWEQPYALPL [TIIWEQ PYALPL]
